Test results published in patent US9376432B2, “Use of VEGFR-3 inhibitors for treating hepatocellular carcinoma” (Sanofi, priority 2012, dated 2016).
One block for each compound: values may come before it.

Key:
[1] = test system: 85 different kinases and 107 receptors, enzymes and ion channels; experiment: selectivity versus other kinases, receptors, enzymes and ion channels
VEGFR-1 = VEGFR-1 (Homo sapiens, UniProt P17948); conditions: same assays as VEGFR-3; disclosed in the '145 application; cited from earlier work
primary lymphatic cells = experiment: VEGFC- and VEGFD-induced proliferation of primary lymphatic cells; type: cell-based; conditions: read-out: IC50, inhibition of VEGFC- and VEGFD-induced proliferation
[2] = test system: HepG2 cell line orthotopic xenograft; experiment: HepG2 cell line orthotopic xenograft model (murine hepatocarcinoma xenograft); type: in vivo, SCID mice; conditions: 100 mg/kg once a day
Protocol: The in vivo anti-tumor efficacy of the compound of Example 1 in HepG2 cell line orthotopic xenograft model was evaluated. The HepG2 cells were injected into liver of SCID mice (obtained from ATCC) and mice were randomized into 2 groups 14 days post cell injection: a control group treated with vehicle and the compound of Example 1-treated group. Treatment was performed once a day at 100 mg/kg in methyl cellulose tween as vehicle.
The tumor size was measured by weighting the left lobe with the tumor at day 28. […] Normal liver lobe was also measured and deduced from the lobe of tumor bearing mice. […] (See FIG. 1).

VEGFR-3 = VEGFR-3 (Homo sapiens, UniProt P35916); conditions: disclosed in the '145 application; read-out: IC50, inhibition of recombinant VEGFR-3 TK activity and autophosphorylation in HEK cells; cited from earlier work
[3] = test system: DEN-induced hepatocarcinoma; experiment: DEN chemical-induced hepatocarcinoma in mice; type: in vivo, male C3H mice
Protocol: DEN (N-diethynitrosamine)-induced mouse model has been validated as a representative model for human HCC Wu et al. J. Cancer Res. Clin. Oncol. (2009) 135. 969-981; Chuang et al. Carcinogenesis (2000) 21; 331-335).
Tumor initiation was achieved by a single intra peritoneal injection of 10 mg/kg of N-diethylnitrosamine (DEN) in male C3H mice (Charles river laboratories France) at the age of 5 weeks.
Mice developed tumors in the liver from the 7th month post DEN administration but the incidence reached 100% at the 12th month. The compound of Example 1 was daily administrated P.O. (orally) after suspension in methyl cellulose tween, between the 10th and 12th month after DEN administration.
The body weight was evaluated each week during treatment and on the 12th months. Mice were killed by overdose of sodium pentobarbital, and livers were removed and weighted. The number of tumors per liver was counted and the tumor volume was measured with calipers. The tumor volume V was calculated using formula V=0.52×a^2×b, where “a” represents the smallest tumor diameter and “b” the largest tumor diameter.

hepatocellular carcinoma = conditions: HCC patients; literature; cited from earlier work
[4] = daily P.O. between 10th and 12th month after DEN, vs vehicle group
[5] = late treatment, 10th to 12th month after DEN, compared to same parameters at the 10th month

Chain of VEGFR-3 (P35916 25-1363): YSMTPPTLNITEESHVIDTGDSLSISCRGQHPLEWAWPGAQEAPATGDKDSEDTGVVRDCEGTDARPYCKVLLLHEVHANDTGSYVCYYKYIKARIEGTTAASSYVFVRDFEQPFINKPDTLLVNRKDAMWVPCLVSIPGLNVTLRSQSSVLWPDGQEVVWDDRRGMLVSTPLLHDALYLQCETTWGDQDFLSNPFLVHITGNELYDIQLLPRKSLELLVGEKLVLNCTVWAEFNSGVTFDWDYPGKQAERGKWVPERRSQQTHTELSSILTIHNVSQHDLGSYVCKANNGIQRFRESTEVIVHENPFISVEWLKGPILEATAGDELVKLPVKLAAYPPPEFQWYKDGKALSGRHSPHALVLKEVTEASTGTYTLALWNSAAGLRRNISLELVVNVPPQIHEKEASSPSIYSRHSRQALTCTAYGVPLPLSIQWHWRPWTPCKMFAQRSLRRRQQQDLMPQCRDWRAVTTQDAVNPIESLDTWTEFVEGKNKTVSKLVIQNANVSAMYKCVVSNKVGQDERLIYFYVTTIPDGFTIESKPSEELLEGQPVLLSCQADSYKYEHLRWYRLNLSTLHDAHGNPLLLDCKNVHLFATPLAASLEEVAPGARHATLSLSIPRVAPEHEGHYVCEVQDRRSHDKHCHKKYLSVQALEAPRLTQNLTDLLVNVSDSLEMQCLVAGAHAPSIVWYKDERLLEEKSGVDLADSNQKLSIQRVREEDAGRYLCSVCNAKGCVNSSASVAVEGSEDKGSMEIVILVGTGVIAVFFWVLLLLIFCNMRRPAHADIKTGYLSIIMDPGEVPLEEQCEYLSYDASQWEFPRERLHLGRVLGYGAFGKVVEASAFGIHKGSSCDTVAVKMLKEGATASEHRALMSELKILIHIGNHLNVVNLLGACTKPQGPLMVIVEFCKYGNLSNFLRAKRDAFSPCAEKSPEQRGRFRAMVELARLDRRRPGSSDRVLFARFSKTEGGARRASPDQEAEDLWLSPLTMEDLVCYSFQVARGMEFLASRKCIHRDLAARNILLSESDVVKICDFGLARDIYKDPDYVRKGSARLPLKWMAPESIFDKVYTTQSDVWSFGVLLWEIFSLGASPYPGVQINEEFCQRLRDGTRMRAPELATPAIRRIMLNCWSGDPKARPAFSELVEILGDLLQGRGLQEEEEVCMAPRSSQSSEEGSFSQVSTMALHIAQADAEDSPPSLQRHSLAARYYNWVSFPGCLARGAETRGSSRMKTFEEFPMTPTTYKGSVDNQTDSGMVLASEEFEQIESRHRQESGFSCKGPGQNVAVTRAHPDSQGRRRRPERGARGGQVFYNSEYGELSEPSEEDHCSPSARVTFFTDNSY
Chain of VEGFR-1 (P17948 27-1338): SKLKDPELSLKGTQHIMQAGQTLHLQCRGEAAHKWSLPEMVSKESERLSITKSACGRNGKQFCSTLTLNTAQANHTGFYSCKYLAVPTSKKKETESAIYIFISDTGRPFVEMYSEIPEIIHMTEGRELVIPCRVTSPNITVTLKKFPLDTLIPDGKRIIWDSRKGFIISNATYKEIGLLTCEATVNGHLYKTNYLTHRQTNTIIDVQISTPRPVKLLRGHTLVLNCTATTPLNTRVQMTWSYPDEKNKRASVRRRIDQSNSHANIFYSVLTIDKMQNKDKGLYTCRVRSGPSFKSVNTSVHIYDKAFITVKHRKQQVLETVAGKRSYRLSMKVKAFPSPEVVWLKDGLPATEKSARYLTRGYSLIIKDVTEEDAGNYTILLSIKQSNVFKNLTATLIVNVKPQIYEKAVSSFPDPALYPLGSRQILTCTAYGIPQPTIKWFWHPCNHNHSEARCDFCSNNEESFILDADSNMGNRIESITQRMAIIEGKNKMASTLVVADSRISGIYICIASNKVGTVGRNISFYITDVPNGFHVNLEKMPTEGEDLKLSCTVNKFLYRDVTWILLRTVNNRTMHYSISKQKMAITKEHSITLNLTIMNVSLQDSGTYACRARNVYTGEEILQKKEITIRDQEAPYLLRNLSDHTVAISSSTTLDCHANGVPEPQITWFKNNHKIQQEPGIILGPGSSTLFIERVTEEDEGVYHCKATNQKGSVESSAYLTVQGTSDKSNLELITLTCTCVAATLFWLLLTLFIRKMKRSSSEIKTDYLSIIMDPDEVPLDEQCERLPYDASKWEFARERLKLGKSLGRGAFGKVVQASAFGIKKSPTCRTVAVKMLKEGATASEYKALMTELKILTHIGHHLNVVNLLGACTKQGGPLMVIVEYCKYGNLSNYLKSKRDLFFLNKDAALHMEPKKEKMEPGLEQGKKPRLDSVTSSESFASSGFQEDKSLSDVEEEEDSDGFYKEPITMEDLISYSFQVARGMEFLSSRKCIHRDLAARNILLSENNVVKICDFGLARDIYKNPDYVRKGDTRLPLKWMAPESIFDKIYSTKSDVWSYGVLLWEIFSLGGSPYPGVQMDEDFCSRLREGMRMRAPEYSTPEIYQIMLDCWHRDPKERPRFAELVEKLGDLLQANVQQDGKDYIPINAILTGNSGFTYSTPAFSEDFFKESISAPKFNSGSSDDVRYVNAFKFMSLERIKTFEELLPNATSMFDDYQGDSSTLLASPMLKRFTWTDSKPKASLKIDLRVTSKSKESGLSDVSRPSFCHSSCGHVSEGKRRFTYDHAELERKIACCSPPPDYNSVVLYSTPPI

selectivity for VEGFR-3 compared to other tested kinases, receptors, enzymes and ion channels [1]: highly selective for VEGFR-3
SMILES: CCn1c(N)c(-c2ncc[nH]2)c(=O)c2ccc(C#C[C@@](C)(O)COC)nc21 [Example 1, 2-Amino-1-ethyl-7-((3R)-3-hydroxy-4-methoxy-3-methyl-but-1-ynyl)-3-(1H-imidazol-2-yl)-1H-[1,8]-naphthyridin-4-one]
IC50 (VEGFR-1): > 1 µM | IC50 (primary lymphatic cells): 0.01 to 0.015 µM | decrease of mean weight of the liver lobe bearing the tumor ([2]; from 14 days post cell injection, Day 28 post cell injection, vs vehicle, p=0.001): 34% | reduction of tumor weight (normal liver lobe weight deduced) ([2]; Day 28, normal liver lobe deduced from lobe of tumor bearing mice): 62% | IC50 (VEGFR-3): ~0.025 µM | total liver weight ([3]; daily P.O. between 10th and 12th month after DEN): reduced and almost normalized | reduction of number of tumors/liver [3, 4]: 50% | reduction of total tumor volume [3, 4]: 85% | formation of new loci compared to the 10th month [3, 5]: prevented the formation of new loci | tumor development compared to the 10th month [3, 5]: completely blocked tumor development

SMILES: CCn1c(N)c(-c2ncc[nH]2)c(=O)c2ccc(C#C[C@@](C)(O)CO)nc21 [Example 2, 2-Amino-7-((3R)3,4-dihydroxy-3-methyl-but-1-ynyl)-1-ethyl-3-(1H-imidazol-2-yl)-1,8-naphthyridin-4(1H)-one]
IC50 (VEGFR-3): ~0.047 µM

SMILES: CNC(=O)c1cc(Oc2ccc(NC(=O)Nc3ccc(Cl)c(C(F)(F)F)c3)cc2)ccn1 [Sorafenib]
OS (overall survival) gain over placebo (hepatocellular carcinoma): 2-3 months
